The text below walks through data of patent publication US20160128935A1, “METHOD OF TREATING AN ANIMAL” (priority 2012, published 2016).

This experiment relates to bacterial infections. Description: Treatment of cichlids having bacterial infections by feeding injected live worms. Conditions: Emperor and Peacock Cichlids with bacterial infections; one injected live worm per fish for six days. The class given is in vivo. Here is the method:
Emperor Cichlids and Peacock Cichlids (fish) having bacterial infections were treated using one live food creature (a live worm) per fish for six days. Each worm was injected with Antibiotic Metronidazole at a measurement of 5 ml in syringe and the worm was injected with as much of the 5 ml as the worm would hold. The injected worms were fed to the fish individually by placing the worm adjacent the fish and feeding was confirmed by observation. The fish ate the treated worms in all cases, showing a vigorous feeding instinct for the live worms. […] It is typical to lose some fish being treated for bacterial infections.

With `Cc1ncc([N+](=O)[O-])n1CCO` [Metronidazole], the “loss of treated fish” value is listed as “None of the fish so treated were lost” and the “recovery time (sufficiently recovered to be salable)” value was “sufficiently recovered to be salable within seven days”.
